Measurements reported in patent US12215085B2 (priority 2019, dated 2025).
Marks after values point to notes of the source that are not given here.

What was measured:
[1] = test system: rats with beta-amyloid induced senile dementia; experiment: Water maze test, beta-amyloid induced senile dementia rats; type: in vivo, rat; conditions: succinate; for orientation angle for reaching the platform / speed for reaching the platform / swimming path length for reaching the platform / time for reaching the platform: x ± s
normal anesthetized dogs = experiment: General pharmacological indexes of normal anesthetized dog; type: in vivo; conditions: 0.8, 1.6 and 3.2 mg/kg
Source text: Meanwhile, the influence of Crystal Form A of octahydroaminoacridine succinate on the general pharmacological indexes of the normal anesthetized dog was observed.

[2] = test system: rats with common carotid artery occlusion-induced vascular dementia; experiment: Brain pathological examination, common carotid artery occlusion-induced vascular dementia rats; type: in vivo, rat; conditions: 1.4 mg/kg and 2.8 mg/kg
[3] = Physical and chemical stability (XRPD, HPLC); type: physicochemical
Procedure: • (1) The physical and chemical stability evaluations were performed after Crystal Form A was placed in a closed condition at 80° C. for 24 hours. • (2) The physical and chemical stability evaluations were performed after Crystal Form A was placed in an open condition at 25° C./60% relative humidity and 40° C./75% relative humidity respectively for one week.
The physical and chemical stabilities of the samples were tested by XRPD and HPLC.

Wistar rats = experiment: Long-term toxicity, 27 weeks, Wistar rats
Source text: 120 Wistar rats were used, 30 rats per group, wherein half of them were males and half were females. The administration route was ig administration, once per day, 6-day administration per week, and a 27-week test period.

[4] = Day 3, 2.8 mg/kg intragastric, 2.8 mg/kg
[5] = Day 4, 0.7 mg/kg intragastric, 0.7 mg/kg
[6] = Day 4, 1.4 mg/kg intragastric, 1.4 mg/kg
[7] = Day 4, 2.8 mg/kg intragastric, 2.8 mg/kg
[8] = Day 5, 0.7 mg/kg intragastric, 0.7 mg/kg
[9] = Day 5, 1.4 mg/kg intragastric, 1.4 mg/kg
[10] = Day 5, 2.8 mg/kg intragastric, 2.8 mg/kg
[11] = Day 6, 0.7 mg/kg intragastric, 0.7 mg/kg
[12] = Day 6, 1.4 mg/kg intragastric, 1.4 mg/kg
[13] = Day 6, 2.8 mg/kg intragastric, 2.8 mg/kg

SMILES: Nc1c2c(nc3c1CCCC3)CCCC2.O=C(O)CCC(=O)O [Crystal Form A, 9-amino-1,2,3,4,5,6,7,8-octahydroacridine succinate]
- adopted strategy for reaching the platform (the peripheral type and the random type %) [1, 4]: 70.00%
- orientation angle for reaching the platform [1, 4]: 41.19 ± 18.30 °
- speed for reaching the platform [1, 4]: 22.47 ± 2.59 cm/s
- swimming path length for reaching the platform [1, 4]: 426.44 ± 213.56 cm
- time for reaching the platform [1, 4]: 20.24 ± 10.26 s
- adopted strategy for reaching the platform (the peripheral type and the random type %) [1, 5]: 64.50* %
- orientation angle for reaching the platform [1, 5]: 47.21 ± 18.21 °
- speed for reaching the platform [1, 5]: 24.92 ± 2.52 cm/s
- swimming path length for reaching the platform [1, 5]: 806.38 ± 1014.62 cm
- time for reaching the platform [1, 5]: 32.05 ± 39.88 s
- adopted strategy for reaching the platform (the peripheral type and the random type %) [1, 6]: 77.50%
- orientation angle for reaching the platform [1, 6]: 53.54 ± 25.57 °
- speed for reaching the platform [1, 6]: 25.56 ± 4.54 cm/s
- swimming path length for reaching the platform [1, 6]: 493.65 ± 256.60 cm
- time for reaching the platform [1, 6]: 20.82 ± 11.32 s
- adopted strategy for reaching the platform (the peripheral type and the random type %) [1, 7]: 67.50* %
- orientation angle for reaching the platform [1, 7]: 47.22 ± 23.29 °
- speed for reaching the platform [1, 7]: 27.31 ± 4.62 cm/s
- swimming path length for reaching the platform [1, 7]: 600.43 ± 563.07 cm
- time for reaching the platform [1, 7]: 22.73 ± 21.88 s
- adopted strategy for reaching the platform (the peripheral type and the random type %) [1, 8]: 75.50* %
- orientation angle for reaching the platform [1, 8]: 54.72 ± 24.68 °
- speed for reaching the platform [1, 8]: 27.17 ± 13.51 cm/s
- swimming path length for reaching the platform [1, 8]: 571.38 ± 716.43 cm
- time for reaching the platform [1, 8]: 25.95 ± 33.84 s
- adopted strategy for reaching the platform (the peripheral type and the random type %) [1, 9]: 57.50* %
- orientation angle for reaching the platform [1, 9]: 53.41 ± 23.18 °
- speed for reaching the platform [1, 9]: 20.14 ± 4.25 cm/s
- swimming path length for reaching the platform [1, 9]: 278.26 ± 125.79 cm
- time for reaching the platform [1, 9]: 14.95 ± 9.19 s
- adopted strategy for reaching the platform (the peripheral type and the random type %) [1, 10]: 68.00** %
- orientation angle for reaching the platform [1, 10]: 43.23 ± 15.80 °
- speed for reaching the platform [1, 10]: 23.96 ± 4.94 cm/s
- swimming path length for reaching the platform [1, 10]: 312.55 ± 230.50 cm
- time for reaching the platform [1, 10]: 14.17 ± 11.56 s
- adopted strategy for reaching the platform (the peripheral type and the random type %) [1, 11]: 65.50%
- orientation angle for reaching the platform [1, 11]: 46.47 ± 18.69 °
- speed for reaching the platform [1, 11]: 23.50 ± 9.00 cm/s
- swimming path length for reaching the platform [1, 11]: 461.68 ± 417.67 cm
- time for reaching the platform [1, 11]: 21.76 ± 23.11 s
- adopted strategy for reaching the platform (the peripheral type and the random type %) [1, 12]: 68.50%
- orientation angle for reaching the platform [1, 12]: 46.29 ± 22.64 °
- speed for reaching the platform [1, 12]: 20.87 ± 4.35 cm/s
- swimming path length for reaching the platform [1, 12]: 402.97 ± 434.93 cm
- time for reaching the platform [1, 12]: 20.62 ± 22.63 s
- adopted strategy for reaching the platform (the peripheral type and the random type %) [1, 13]: 52.50** %
- orientation angle for reaching the platform [1, 13]: 40.91 ± 15.25 °
- speed for reaching the platform [1, 13]: 24.73 ± 4.83 cm/s
- swimming path length for reaching the platform [1, 13]: 252.87 ± 161.30 cm
- time for reaching the platform [1, 13]: 10.70 ± 6.74 s
- respiratory frequency, respiratory amplitude, arterial blood pressure, heart rate and electrocardiogram (normal anesthetized dogs): no obvious influence
- pathological change of the common carotid artery occlusion-induced vascular dementia [2]: could relieve the pathological change
- crystal form after storage (XRPD) ([3]; 80° C. closed 24 hours, 25° C./60% relative humidity and 40° C./75% relative humidity open one week): unchanged
- chemical purity after storage (HPLC) ([3]; all three test conditions: 80° C. closed 24 hours, 25° C./60% RH and 40° C./75% RH open one week): unchanged
- toxic target organ for long-term administration (Wistar rats; 27 weeks intragastric): could be the liver, but reversible
- animals died (Wistar rats; high-dose group 30 mg/kg, 27 weeks): 5 animals
- non-toxic reaction dose (Wistar rats; intragastric, 27 weeks): 15 mg/kg
- body weight of male and female rats vs control group (Wistar rats; rat, in vivo): obviously reduced
- electrocardiogram PR interval, QRS interval, QT interval, T wave, heart rate vs control group (Wistar rats; rat, in vivo): no significant difference
- general and microscopic examination of all organs (Wistar rats; rat, in vivo): No obvious pathological changes caused by the drug toxicity
- general state, behavioral activity, mental state, fur, urine and feces, food (water) intake (Wistar rats; rat, in vivo): all normal
- hematology, blood biochemistry examination and each organ coefficient vs control group (Wistar rats; rat, in vivo): no obvious difference
- rats with obvious elevation of the liver function index ALT (Wistar rats; rat, in vivo): 2 rats
